In brackets after ≈: the same amount, converted by molar mass.
Experiments:
Type in all cases: physicochemical
[1] = DSC enthalpy of fusion and percentage residual crystallinity of co-ground compositions; settings: enthalpy of fusion of the active substance as such, before co-grinding
Excerpt: The compositions obtained by operating according to the examples reported below have been characterised by DSC and from the enthalpy of fusion the percentage residual crystallinity has been calculated.

[2] = Solubilisation kinetics under non sink conditions; settings: thermodynamic from solid, in 2 minutes, read-out: concentration of DHEA reached (solubilisation kinetics, oversaturation)
Method: (§1) The dissolution speed of the DHEA from the ternary composition is markedly greater with respect to that of the DHEA as such, reaching 70% release after 15 minutes and 90% after 60 minutes, against the respective 9% and 20% for DHEA as such. Regarding the kinetics, in the ternary composition, the oversaturation reached by DHEA, which reaches a concentration of over 80 μg/ml in 2 minutes against around 50 μg/ml of DHEA as such, is evident.
(§2) Furthermore, the percentage of active substance released under sink conditions and the solubilisation kinetics under non sink conditions have been determined.

[3] = Percentage of active substance released under sink conditions (dissolution speed)
Method: as §1, with “In FIGS. 5 and 6 are reported respectively the dissolution speed curves under sink conditions (% age of active substance released against time) and the to solubilisation kinetics curves under non sink conditions (concentration of active substance against time) of a hydrophobic drug (DHEA)/hydrophilic carrier combination. The” for “The”
as §2

Question: For C[C@]12CC[C@H](O)CC1=CC[C@@H]1[C@@H]2CC[C@]2(C)C(=O)CC[C@@H]12 [DHEA, dehydroepiandrosterone], which “Active Substance Enthalpy” value [1] is on record?
Answer: 100 J/g

Question: And the solubility kinetic at 2 min [2]?
Answer: ~50 µg/mL (≈ 173 µM)

Question: What about the “percentage of active substance (DHEA) released” value ([3]; after 15 minutes) of the same molecule?
Answer: 9%

Question: What about the “percentage of active substance (DHEA) released” value ([3]; after 60 minutes) of the same molecule?
Answer: 20%

Question: Which “Active Substance Enthalpy” value [1] does the source give for CC(=O)OCC(=O)[C@@]1(O)CC[C@H]2[C@@H]3CCC4=CC(=O)CC[C@]4(C)[C@H]3[C@@H](O)C[C@@]21C [HCA, hydrocortisone acetate] here?
Answer: 117.9 J/g

Question: Which “Active Substance Enthalpy” value [1] does the source give for Cc1cc(O)c(C2CC3CCC2(C)C3(C)C)cc1C (centres unmarked) [Xibornol, xibornol] here?
Answer: 92.8 J/g

Question: With Oc1ccc(C=Cc2cc(O)cc(O)c2)cc1 [Resveratrol, resveratrol] as the molecule, how does the “Active Substance Enthalpy” value [1] read?
Answer: 317.7 J/g

Question: With CC(=O)N[C@@H](CS)C(=O)O [NAC, N-acetyl cystein] as the molecule, how does the “Active Substance Enthalpy” value [1] read?
Answer: 192.9 J/g

From patent US20050255163A1, “Co-grinding process for the preparation of a ternary composition” (priority 2002, published 2005)
